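Method: 48-hour compound exposure of cells in 96-well plates, five concentrations, linear interpolation of endpoints. The concentration for 50% growth inhibition is given as GI50. TGI marks complete inhibition of growth.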
Legend:
Assay in all cases: growth of human tumour cells (NCI), 48 h
[1] = system: SR leukemia
[2] = system: NCI-H226 lung
[3] = system: MALME-3M melanoma
[4] = system: HCT-116 colon
[5] = system: ACHN renal
[6] = system: MDA-MB-468 breast
[7] = system: HT29 colon
[8] = system: MOLT-4 leukemia
[9] = system: SF-268 CNS
[10] = system: LOX IMVI melanoma
[11] = system: MDA-MB-435
[12] = system: COLO 205 colon
[13] = system: OVCAR-5 ovarian
[14] = system: UO-31 renal
[15] = system: KM12 colon
[16] = system: DU-145 prostate
[17] = system: U251 CNS
[18] = system: SNB-75 CNS
[19] = system: HOP-62 NSCLC
[20] = system: HOP-92 NSCLC
[21] = system: SF-295 CNS
[22] = system: HL-60(TB) leukemia
[23] = system: M14 melanoma
[24] = system: RPMI-8226 leukemia
[25] = system: EKVX NSCLC
[26] = system: HCC-2998 colon
[27] = system: OVCAR-3 ovarian
[28] = system: OVCAR-4 ovarian
[29] = system: SF-539 CNS
[30] = system: CAKI-1 renal

Cc1ccc(-c2nc(C#N)c(S(=O)(=O)N3CCN(S(C)(=O)=O)CC3)o2)cc1
TGI [1]: 26 µM
GI50 [2]: > 100 µM
TGI [2]: > 100 µM
GI50 [3]: > 100 µM
TGI [3]: > 100 µM
GI50 [4]: 11.8 µM
TGI [4]: 34.7 µM
GI50 [5]: 44.1 µM
TGI [5]: > 100 µM
GI50 [6]: 28.2 µM
TGI [6]: > 100 µM
GI50 [7]: 37.1 µM
TGI [7]: > 100 µM
GI50 [8]: 7.61 µM
TGI [8]: 37 µM
GI50 [9]: > 100 µM
TGI [9]: > 100 µM
GI50 [10]: 2.97 µM
TGI [10]: 16 µM
GI50 [11]: 37.8 µM
TGI [11]: > 100 µM
GI50 [12]: > 100 µM
TGI [12]: > 100 µM
GI50 [13]: > 100 µM
TGI [13]: > 100 µM
GI50 [14]: > 100 µM
TGI [14]: > 100 µM
GI50 [15]: > 100 µM
TGI [15]: > 100 µM
GI50 [16]: > 100 µM
TGI [16]: > 100 µM
GI50 [17]: 51.7 µM
TGI [17]: > 100 µM
GI50 [18]: > 100 µM
TGI [18]: > 100 µM
GI50 [19]: > 100 µM
TGI [19]: > 100 µM
GI50 [20]: > 100 µM
TGI [20]: > 100 µM
GI50 [21]: 61.7 µM
TGI [21]: > 100 µM
GI50 [22]: 65.2 µM
TGI [22]: > 100 µM
GI50 [23]: 26.3 µM
TGI [23]: > 100 µM
GI50 [24]: 26.7 µM
TGI [24]: > 100 µM
GI50 [25]: > 100 µM
TGI [25]: > 100 µM
GI50 [26]: 53.8 µM
TGI [26]: > 100 µM
GI50 [27]: 24.6 µM
TGI [27]: > 100 µM
GI50 [28]: > 100 µM
TGI [28]: > 100 µM
GI50 [29]: 73.3 µM
TGI [29]: > 100 µM
GI50 [30]: > 100 µM
TGI [30]: > 100 µM

From PubChem BioAssay (NCI)
